Measured values: ChEMBL document CHEMBL1122257, “Synthesis and anticonvulsant activity of some tetracyclic indole derivatives” (1983)

What was measured:
Assay type in all cases: functional
Rattus norvegicus [1] = experiment: Tested anticonvulsant activity in 6 rats after oral administration of 30 mg/kg po dose for rotarod performance; 0/6
Rattus norvegicus [2] = experiment: Tested for anticonvulsant activity in 3 rats after oral administration of 30 mg/kg po dose for protection against maximal electroshock in rat MES test; 0/3
Rattus norvegicus [3] = experiment: Anticonvulsant activity in rats after oral administration of 30 mg/kg dose(effective dosage)
Rattus norvegicus [4] = experiment: Tested for anticonvulsant activity in 3 rats after oral administration of 30 mg/kg po dose for protection against maximal electroshock in rat MES test; 2/3
Rattus norvegicus [5] = experiment: Tested for anticonvulsant activity in 3 rats after oral administration of 30 mg/kg po dose for protection against maximal electroshock in rat MES test; 3/3
Rattus norvegicus [6] = experiment: Tested anticonvulsant activity in 6 rats after oral administration of 300 mg/kg po dose for rotarod performance; 0/6
Rattus norvegicus [7] = experiment: Tested for anticonvulsant activity in 3 rats after oral administration of 30 mg/kg po dose for protection against maximal electroshock in rat MES test; 1/3
Rattus norvegicus [8] = experiment: Tested anticonvulsant activity in 6 rats after oral administration of 30 mg/kg po dose for rotarod performance; 1/6
Rattus norvegicus [9] = experiment: Anticonvulsant activity in rats after oral administration of 30 mg/kg dose for rotarod performance; 0/6

| SMILES | Reactors/Test group (Rattus norvegicus [1]) | Reactors/Test group (Rattus norvegicus [2]) | further results |
| --- | --- | --- | --- |
| CN(C)C(=O)C1CCc2cccc3c4c(n1c23)CCCCC4 (stereo unspecified) | 0 | 0 | – |
| CN(C)CC1Cc2cccc3c4c(n(c23)C1)CCCCC4 (stereo unspecified) | 0 | 0 | – |
| CN(C)CC1Cc2cccc3c4c(n1c23)CCCCCC4 (stereo unspecified) | 0 | 0 | – |
| CN(C)CC1CCc2cccc3c4c(n1c23)CCCCC4 (stereo unspecified) | 0 | – | ED50 (Rattus norvegicus [3]): 78.9 mg/kg; Reactors/Test group (Rattus norvegicus [4]): 2 |
| CN(C)CCC1CCc2cccc3c4c(n1c23)CCCCC4 (stereo unspecified) | 0 | – | ED50 (Rattus norvegicus [3]): 27.4 mg/kg; Reactors/Test group (Rattus norvegicus [5]): 3 |
| CN(C)CC1CCc2cccc3c4c(n1c23)-c1ccccc1SC4 (stereo unspecified) | 0 | 0 | – |
| CN(C)CC1Cc2cccc3c4c(n1c23)CCCC4 (stereo unspecified) | 0 | – | ED50 (Rattus norvegicus [3]): 19.2 mg/kg; Reactors/Test group (Rattus norvegicus [5]): 3 |
| CN(C)CCC1CCc2cccc3c4c(n1c23)CCN(C)C4 (stereo unspecified) | 0 | 0 | – |
| CN(C)CC1CCc2cccc3c4c(n1c23)CCCCCC4 (stereo unspecified) | 0 | 0 | – |
| CN(C)CC1Cn2c3c(c4cccc1c42)CCCCCC3 (stereo unspecified) | 0 | 0 | – |
| CN(C)CC1CCc2cccc3c4c(n1c23)CCC4 (stereo unspecified) | 0 | – | ED50 (Rattus norvegicus [3]): 12.5 mg/kg; Reactors/Test group (Rattus norvegicus [5]): 3 |
| CN(C)CC1Cn2c3c(c4cccc1c42)CCCCC3 (stereo unspecified) | 0 | 0 | – |
| CN(C)CC1CCc2cccc3c4c(n1c23)CCCC4 (stereo unspecified) | – | – | Reactors/Test group (Rattus norvegicus [6]): 0; Reactors/Test group (Rattus norvegicus [5]): 3 |
| CN1CCN(C(=O)C2CCc3cccc4c5c(n2c34)CCCCC5)CC1 (stereo unspecified) | 0 | 0 | – |
| CN(C)CCC1CCc2cccc3c4c(n1c23)CCCC4 (stereo unspecified) | 0 | – | Reactors/Test group (Rattus norvegicus [4]): 2 |
| CNC(=O)C1CCc2cccc3c4c(n1c23)CCCC4 (stereo unspecified) | 0 | 0 | – |
| CNC(=O)C1CCc2cccc3c4c(n1c23)CCC4 (stereo unspecified) | 0 | 0 | – |
| CN(C)CCC1CCc2cccc3c4c(n1c23)CCCCCC4 (stereo unspecified) | 0 | 0 | – |
| CN(C)CC1CCc2cccc3c4c(n1c23)-c1ccccc1CC4 (stereo unspecified) | – | – | Reactors/Test group (Rattus norvegicus [7]): 1; Reactors/Test group (Rattus norvegicus [8]): 1 |
| CNC(=O)C1CCc2cccc3c4c(n1c23)CCCCC4 (stereo unspecified) | 0 | – | ED50 (Rattus norvegicus [3]): 12.9 mg/kg; Reactors/Test group (Rattus norvegicus [5]): 3 |
| CN(C)CC1CCc2cccc3c4c(n1c23)CCSC4 (stereo unspecified) | 0 | 0 | – |
| CN(C)CCC1CCc2cccc3c4c(n1c23)CCSC4 (stereo unspecified) | – | 0 | Reactors/Test group (Rattus norvegicus [8]): 1 |
| CN(C)CCC1CCc2cccc3c4c(n1c23)CCC4 (stereo unspecified) | 0 | 0 | – |
| CN(C)CC1Cc2cccc3c4c(n(c23)C1)Cc1ccccc1-4 (stereo unspecified) | – | 0 | Reactors/Test group (Rattus norvegicus [8]): 1 |
| CN(C)CC1Cc2cccc3c4c(n(c23)C1)CCCCCC4 (stereo unspecified) | – | 0 | Reactors/Test group (Rattus norvegicus [8]): 1 |
| CN(C)CC1Cc2cccc3c4c(n1c23)CCCCC4 (stereo unspecified) | 0 | 0 | – |
| CNCC1CCc2cccc3c4c(n1c23)CCCCC4 (stereo unspecified) | 0 | 0 | – |
| O=C1NC(=O)C(c2ccccc2)(c2ccccc2)N1 [PHENYTOIN] | – | – | Reactors/Test group (Rattus norvegicus [9]): 0; ED50 (Rattus norvegicus [3]): 42.3 mg/kg |
